Where two headings read alike, the source gives them in different places.
Key:
S.D. rat = assay type: in vivo; conditions: for dose at which significant ulcer reduction was observed: administered simultaneously with indomethacin; for Gastric Ulcers % Inhibition / Gastric Ulcers Mean Score + SEM (number of ulcers): 4 hours after indomethacin
Description: Indomethacin, 20 mg/kg p.o., was used to induce ulcers in the 24 hr. fasted S.D. rat. […]
The number of ulcers for twenty-six (i.p.) and fifteen (p.o.) aqueous vehicle-dosed control animals in the indomethacin ulcer assay were so close, (23.0±2.2 S.E.M. i.p.; 18.1±1.6 S.E.M. p.o.), that the data from each experimental dosage group were pooled for group statistical analysis by way of Student's "t" test. FIG. 1 indicates the number of ulcers resulting from indomethacin at 20 mg/kg p.o., when either 0.5% (wt.) aqueous methylcellulose vehicle or L-363,586 was co-administered. The bold-faced numbers at the bottom of each column represent the number of rats used for each value, while the dose, in mg/kg, is noted at the top of each column. […] Higher i.p. doses, from 0.0016 to 0.1 mg/kg, thereafter, inhibited ulcer formation by 80% to 94%.

[1] = test system: Sprague-Dawley (S.D.) rats; assay type: in vivo, rat; conditions: for Gastric Lesions % Inhibition / Gastric Lesions Mean Score + SEM: 60 minutes after ethanol
Description: Twenty-four hr. fasted Sprague-Dawley (S.D.) rats were perorally (p.o.) dosed with 1.0 ml absolute ethanol. […] One hour later, the animals were sacrificed and stomach mucosae were examined for resulting lesions.

[2] = 0.01 mg/kg p.o. simultaneously with indomethacin 20 mg/kg p.o.
[3] = 0.1 mg/kg p.o. simultaneously with indomethacin 20 mg/kg p.o.
[4] = 1.0 mg/kg p.o. simultaneously with indomethacin 20 mg/kg p.o.
[5] = 0.22 mg/kg p.o. coadministered with 1.0 ml 100% ethanol
[6] = 0.44 mg/kg p.o. coadministered with 1.0 ml 100% ethanol
[7] = 1.0 mg/kg p.o. coadministered with 1.0 ml 100% ethanol
[8] = 2.2 mg/kg p.o. coadministered with 1.0 ml 100% ethanol
[9] = 4.4 mg/kg p.o. coadministered with 1.0 ml 100% ethanol
[10] = 0.0001 mg/kg i.p. immediately following 20 mg/kg p.o. indomethacin
[11] = 0.001 mg/kg i.p. immediately following 20 mg/kg p.o. indomethacin
[12] = 0.01 mg/kg i.p. immediately following 20 mg/kg p.o. indomethacin
[13] = 0.1 mg/kg i.p. immediately following 20 mg/kg p.o. indomethacin

Structure (SMILES): CC(C)[C@@H]1NC(=O)[C@H](CCCCN)NC(=O)[C@@H](Cc2c[nH]c3ccccc23)NC(=O)[C@H](Cc2ccc(O)cc2)NC(=O)[C@H](C)N(C)C(=O)[C@H](Cc2ccccc2)NC1=O [L-363,586, cyclo-(N-methyl-Ala-Tyr-d-Trp-Lys-Val-Phe)]
- reduction of the number of ulcers (S.D. rat; 0.00001 mg/kg (10 nanograms/kg) i.p. immediately following indomethacin 20 mg/kg p.o.): 58.3%
- % Inhibition of Gastric Ulcers (S.D. rat; [2]): -2.8%
- Number of Gastric Ulcers M + S.E.M. (S.D. rat; [2]): 18.6 ± 4.4
- % Inhibition of Gastric Ulcers (S.D. rat; [3]): 50.3%
- Number of Gastric Ulcers M + S.E.M. (S.D. rat; [3]): 9.0 ± 1.9
- % Inhibition of Gastric Ulcers (S.D. rat; [4]): 83.4%
- Number of Gastric Ulcers M + S.E.M. (S.D. rat; [4]): 3.0 ± 1.3
- reduction in gastric mucosal ulcers (S.D. rat; administered either p.o. or i.p.): dose-dependent reduction
- dose at which significant ulcer reduction was observed (S.D. rat; i.p.): 10 nanograms per kilogram
- further reduction of damage with increasing dose (S.D. rat; increasing log-dose amounts from 0.00001 to 0.001 mg/kg i.p., indomethacin 20 mg/kg p.o.): did not effectively reduce the damage any further
- dose at which significant ulcer reduction was observed (S.D. rat; p.o.): 0.1 mg/kg
- Gastric Lesions % Inhibition [1, 5]: 8.0%
- Gastric Lesions Mean Score + SEM [1, 5]: 2.3 ± 0.3
- Gastric Lesions % Inhibition [1, 6]: 28.0%
- Gastric Lesions Mean Score + SEM [1, 6]: 1.8 ± 0.4
- Gastric Lesions % Inhibition [1, 7]: 28.0%
- Gastric Lesions Mean Score + SEM [1, 7]: 1.8 ± 0.3
- Gastric Lesions % Inhibition [1, 8]: 40.0%
- Gastric Lesions Mean Score + SEM [1, 8]: 1.5 ± 0.4
- Gastric Lesions % Inhibition [1, 9]: 60.0%
- Gastric Lesions Mean Score + SEM [1, 9]: 1.0 ± 0.3
- prophylactic effect on ethanol-induced lesions ([1]; 0.037 to 3.0 mg/kg p.o. fifteen min. prior to 1.0 ml absolute ethanol, examined one hour later): No prophylactic effect
- dose significantly effective in protecting against ethanol-induced lesions ([1]; p.o. simultaneously with 100% ethanol, lowest such dose): 0.44 mg/kg

Structure (SMILES): C[C@H](N)C(=O)NCC(=O)N[C@H]1CSSC[C@@H](C(=O)O)NC(=O)[C@H](CO)NC(=O)[C@H]([C@@H](C)O)NC(=O)[C@H](Cc2ccccc2)NC(=O)[C@H]([C@@H](C)O)NC(=O)[C@H](CCCCN)NC(=O)[C@H](Cc2c[nH]c3ccccc23)NC(=O)[C@H](Cc2ccccc2)NC(=O)[C@H](Cc2ccccc2)NC(=O)[C@H](CC(N)=O)NC(=O)[C@H](CCCCN)NC1=O [somatostatin, reference compound]
- Gastric Ulcers % Inhibition (S.D. rat; [10]): -9.3%
- Gastric Ulcers Mean Score + SEM (number of ulcers) (S.D. rat; [10]): 22.4 ± 3.8
- Gastric Ulcers % Inhibition (S.D. rat; [11]): 2.4%
- Gastric Ulcers Mean Score + SEM (number of ulcers) (S.D. rat; [11]): 21.0 ± 2.4
- Gastric Ulcers % Inhibition (S.D. rat; [12]): 16.1%
- Gastric Ulcers Mean Score + SEM (number of ulcers) (S.D. rat; [12]): 17.2 ± 2.3
- Gastric Ulcers % Inhibition (S.D. rat; [13]): 5.9%
- Gastric Ulcers Mean Score + SEM (number of ulcers) (S.D. rat; [13]): 19.3 ± 3.3
- Gastric Ulcers Mean Score + SEM (number of ulcers) (S.D. rat; 0.5 mg/kg i.p. immediately following 20 mg/kg p.o. indomethacin): 7.7 ± 3.6
- Gastric Ulcers Mean Score + SEM (number of ulcers) (S.D. rat; 1.0 mg/kg i.p. immediately following 20 mg/kg p.o. indomethacin): 11.0 ± 3.0
- effectiveness in the peroral (p.o.) indomethacin-induced ulcer assay (S.D. rat; doses up to 0.1 mg/kg i.p.): not effective

Source: patent US4470974A, “Gastric cytoprotection with L-363,586” (Merck & Co., Inc., priority 1983, dated 1984)
